These results are taken from ChEMBL document CHEMBL1158260, “Six lignans from Phyllanthus myrtifolius” (J Nat Prod, 1996).

Assay [1] concerns the target Human immunodeficiency virus type 1 reverse transcriptase (Human immunodeficiency virus 1, UniProt Q72547). The experiment in a line: (§1) Inhibition of HIV1 reverse transcriptase.
Assay [2] is described as follows: Inhibition of human DNA polymerase alpha.
For assay [3], the target named is Human immunodeficiency virus type 1 reverse transcriptase (Human immunodeficiency virus 1) (UniProt Q72547). Briefly: Inhibition of HIV1 reverse transcriptase at 10 uM.
Assay [4] has the same target. The description is as §1.
The target is the same in assay [5]. The experiment in a line: Increase in HIV1 reverse transcriptase activity at 18.9 uM relative to control.
Assay [6] has the same target. Briefly: Increase in HIV1 reverse transcriptase activity at 1.89 uM.

Structures are written as SMILES. Calls of active or inactive are those of the source. No cut-off for these calls is given here.

As usually defined, the IC50 is the point on the concentration scale where inhibition reaches its midpoint. The low end stands for greater potency, the high end for weaker potency. Turning to `COCc1cc2cc(OC)c(OC)cc2c(-c2ccc3c(c2)OCO3)c1C=O` [PHYLLAMYRICIN B], the IC50 in assay [1] was 3.5 µM; in assay [2], 289 µM.
By inhibition is commonly meant how much of the control response was suppressed. `COc1cc2cc3c(c(-c4ccc5c(c4)OCO5)c2cc1OC)C(=O)OC3OC` (centres undefined) displayed an inhibition in assay [3] of 20%.
For `COc1cc2c(O[C@@H]3O[C@H](CO)[C@@H](O)[C@H](O)[C@H]3O)c(CO)c(CO)c(-c3ccc4c(c3)OCO4)c2cc1OC`, the result in assay [4] was inactive.
In the case of `COc1cc2c(O[C@@H]3O[C@H](CO)[C@@H](O)[C@H](O)[C@H]3O)c(CO)c(C)c(-c3ccc4c(c3)OCO4)c2cc1OC`, the Activity in assay [5] is 65%; in assay [6], 210%.
For `COc1cc2cc3c(c(-c4ccc5c(c4)OCO5)c2cc1OC)COC3=O` [RETROJUSTICIDIN B], the half-maximal inhibitory concentration (IC50) in assay [1] came to 5.5 µM; in assay [2], 989 µM.
Turning to `COc1cc(-c2c(C)c(CO)c(O[C@@H]3O[C@H](CO)[C@@H](O)[C@H](O)[C@H]3O)c3cc(OC)c(OC)cc23)ccc1O`, the result in assay [4] was inactive.
